Results as given in PubChem BioAssay (NCI).
Values joined by “and” are separate entries in the source; they are usually repeats but may differ in a detail not shown here. Equal entries are not always repeated.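 The compound was tested at five concentrations on cells cultured in 96-well plates, with a 48-hour exposure period. GI50 marks 50% less growth. The concentration for full growth arrest is given as TGI.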

What was measured:
Test in all cases: DTP human tumour cell line panel, 48 h
[1] = test system: ACHN renal
[2] = test system: COLO 205 colon
[3] = test system: K-562 leukemia
[4] = test system: MOLT-4 leukemia
[5] = test system: NCI-H226 lung
[6] = test system: NCI-H460 lung
[7] = test system: SK-MEL-2 melanoma
[8] = test system: SK-MEL-28 melanoma

SMILES	GI50 [1]	TGI [1]	GI50 [2]	TGI [2]	GI50 [3] [µM]	TGI [3]	GI50 [4]	TGI [4]	GI50 [5]	TGI [5]	GI50 [6]	TGI [6]	GI50 [7] [µM]	TGI [7] [µM]	GI50 [8]	TGI [8]
COc1ccc(C(=O)COc2ccc(/C=C3\COc4ccc(OC)cc4C3=O)cc2)cc1	29.7 µM	> 100 µM	51.8 µM	> 100 µM	4.09	61.2 µM	9.36 µM	51.6 µM	54.7 µM	> 100 µM	57.5 µM	> 100 µM	37.5	> 100	19.9 µM	56.9 µM
CC1(C)[C@@H](OC(N)=O)[C@H]2O[C@H]2[C@]2(C=O)[C@H]3CC[C@]4(C)[C@@H](c5ccc(=O)oc5)[C@@H](Cl)C[C@]4(O)C3=CC[C@@H]12	0.00403 µM	0.00892 µM	0.00731 µM	0.0199 µM	0.00698	0.0253 µM	0.00365 µM	0.0112 µM	0.00432 µM	0.00811 µM	0.00347 µM	0.0077 µM	0.02	0.0692	0.00794 µM	0.0268 µM
CCn1c(-c2ccc(OC(C)=O)cc2)c(C)c2cc(OC(C)=O)ccc21	–	> 100 µM	–	47.4 µM	–	55.3 µM	–	34 µM	–	> 100 µM	–	56.4 µM	–	37.2	–	59.1 µM
CCc1nc(C(N)=O)c(Nc2ccc(N3CCC(N4CCN(C)CC4)CC3)c(OC)c2)nc1NC1CCOCC1	2.07 µM and 0.42 µM and 1.48 µM	17.1 µM and > 10 µM and 15.4 µM	1.55 µM and 0.281 µM and 1.57 µM	9.65 µM and > 1.98 µM and 14.2 µM	–	33 µM and > 2.39 µM and 45.4 µM	3.55 µM and 0.794 µM and 4.06 µM	21.5 µM and > 2.7 µM and 25.4 µM	5.45 µM and > 10 µM and 5.78 µM	28.8 µM and > 10 µM and 30 µM	1.37 µM and 0.501 µM and 1.27 µM	17.4 µM and > 10 µM and 19.5 µM	–	–	5.04 µM and 0.641 µM and 3.51 µM	21.2 µM and > 2.91 µM and 19.1 µM
C1CCC([PH+](C2CCCCC2)C2CCCCC2[PH+](C2CCCCC2)C2CCCCC2)CC1.O=C(C1[CH-]CCCC1)C1CCCC[N-]1.[Au] (configuration not stated)	0.92 µM	2.12 µM	–	–	0.194	> 100 µM	–	–	0.455 µM	2.43 µM	–	–	0.379	2.02	–	–
CN(CCC#N)c1ccc(/C=C(\C#N)c2ccc(Br)cc2)cc1	> 100 µM	> 100 µM	–	–	3.5	> 100 µM	–	–	> 100 µM	> 100 µM	–	–	–	–	> 100 µM	> 100 µM
O=C1NC(=O)C(CC2CCCCCCCCCCC2=O)C(=O)N1 (configuration not stated)	–	> 100 µM	–	> 100 µM	–	–	–	> 100 µM	–	> 100 µM	–	> 100 µM	–	> 100	–	> 100 µM
CC(=O)C(=CN1CCN(C(=O)c2ccco2)C1=S)C(C)=O	2.87 µM	8.04 µM	23.4 µM	54.9 µM	38.4	> 100 µM	8.2 µM	> 100 µM	–	–	1.5 µM	3.42 µM	3.34	8.52	3.94 µM	25.8 µM
Nc1ccn(C2CCC(CO)O2)c(=O)n1 (configuration not stated)	–	> 1000 µM	> 1000 µM	> 1000 µM	> 1000	> 1000 µM	87.5 µM	> 1000 µM	> 1000 µM	> 1000 µM	–	–	> 1000	> 1000	–	–
COc1cc(NC(C)CCCN)c2nccc(C)c2c1 (configuration not stated)	–	74.6 µM	–	28.4 µM	–	–	–	–	–	–	–	54.7 µM	–	37.9	–	35.3 µM
CCCCCCCCCCCCCCCCCCOc1ccccc1CC(=O)OCC[N+]1(C)CCCC1	4 µM	16.4 µM	–	–	2.81	10.5 µM	2.12 µM	4.95 µM	2.2 µM	6.09 µM	2.15 µM	4.65 µM	–	–	2.72 µM	7.86 µM
Cc1ccc(-c2nc3ccc(Cl)cc3c(=O)n2N2C(=O)CSC2c2ccccc2Cl)cc1 (configuration not stated)	0.627 µM	> 100 µM	9 µM	> 100 µM	> 100	> 100 µM	> 100 µM	> 100 µM	5.14 µM	> 100 µM	3.68 µM	> 100 µM	–	–	20.6 µM	> 100 µM
Cn1c2ccccc2c(=O)c2ccc(Cl)cc21	–	–	–	> 10 µM	–	> 10 µM	–	> 10 µM	–	–	–	–	–	> 10	–	> 10 µM
CC(CO)(CO)NCCCCn1ccc2c1C(=O)c1c(c(O)c3ccccc3c1O)C2=O	6.27 µM	> 100 µM	3.01 µM	31.3 µM	–	–	–	–	–	–	13.7 µM	42.9 µM	–	–	–	–
CC1=C(O)C(=O)C=C2C1=CC=C1[C@@]2(C)CC[C@@]2(C)[C@@H]3C[C@](C)(C(=O)O)CC[C@]3(C)CC[C@]12C	–	0.0459 µM	–	0.041 µM	–	0.0617 µM	–	–	–	0.366 µM	–	0.384 µM	–	0.219	–	0.0345 µM
CN(C)CCN1C(=O)c2ccc3c4c(ccc(c24)C1=O)C(=O)N(CCN=C=S)C3=O	0.0256 µM	0.123 µM	0.0254 µM	0.0922 µM	–	–	–	–	0.1 µM	0.325 µM	–	–	0.0563	0.225	0.0839 µM	0.209 µM
COc1c(CCl)cc(-c2cc(=O)c3ccccc3s2)cc1CCl	–	> 100 µM	–	> 100 µM	–	> 100 µM	–	–	–	> 31.6 µM	–	> 100 µM	–	> 100	–	> 100 µM
